Measured values as given in patent US5006534A, “Substituted ethers, thioethers and amines for use as lipoxygenase inhibitors” (Bayer Aktiengesellschaft, priority 1985, dated 1991).

Key:
mouse ear inflammation = mouse ear inflammation model; format: in vivo
lipoxygenase = experiment: LTB4 release on polymorphonuclear rat leucocytes (PMN) by RP-HPLC after Ca ionophor, as a measure of lipoxygenase inhibition; format: cell-based
Description: The release of leukotriene B4 (LTB4) was determined on polymorphonuclear rat leucocytes (PMN) by means of reverse phase high performance liquid chromatography, after addition of substances and Ca ionophor, in accordance with the method of Borgeat, P. et al., Proc. Nat. Acad. Sci., 76, 2148-2152 (1979) as a measure of the lipoxygenase inhibition.

CCCCCC(OC(C)=O)c1cccc(COc2cccc3cccnc23)c1 (centres unmarked) [Example 38, 1-[3-(Quinolin-8-yloxymethyl)phenyl]hexyl acetate]
Inhibition of inflammation at 2 mg/ear (mouse ear inflammation): 75.0%
LO inhibition IC50 values (lipoxygenase): 0.14 µg/mL

CCCCCCC(OC(C)=O)c1cccc(COc2cccc3cccnc23)c1 (centres unmarked) [Example 39, 1-[3-(Quinolin-8-yloxymethyl)phenyl]heptyl acetate]
Inhibition of inflammation at 2 mg/ear (mouse ear inflammation): 72.0%
LO inhibition IC50 values (lipoxygenase): 0.26 µg/mL

CCCCC(O)c1cccc(COc2cccc3cccnc23)c1 (centres unmarked) [Example 55, 1-[3-(Quinolin-8-yloxymethyl)phenyl]pentanol]
Inhibition of inflammation at 2 mg/ear (mouse ear inflammation): 70.0%
LO inhibition IC50 values (lipoxygenase): 0.083 µg/mL

CCCCCCC(O)c1cccc(COc2cccc3cccnc23)c1 (centres unmarked) [Example 57, 1-[3-(Quinolin-8-yloxymethyl)phenyl]heptanol]
Inhibition of inflammation at 2 mg/ear (mouse ear inflammation): 86.1%
LO inhibition IC50 values (lipoxygenase): 0.23 µg/mL
